# B1: ch-mAb6B5: mouse/human chimeric anti-PCP monoclonal antibody: mAb6B5 variable domains on human IgG2 heavy chain and kappa light chain constant domains (antibody)
# heavy: MECSCVMLFLLSGTAGVLSEVQLQQSGPELVKPGASVKMSCKASGYTGTDYYIHWMKQSHGKSLEWIGYIYPNNGGNGYNQKFKGKATLTVDKSSSTAYMELRTLTSEDSAVYYCGRSTWDDFDYWGQGTTLTVSSASTKGPSVFPLAPCSRSTSESTAALGCLVKDYFPEPVTVSWNSGALTSGVHTFPAVLQSSGLYSLSSVVTVPSSNFGTQTYTCNVDHKPSNTKVDKTVERKCCVECPPCPAPPVAGPSVFLFPPKPKDTLMISRTPEVTCVVVDVSHEDPEVQFNWYVDGVEVHNAKTKPREEQFNSTFRVVSVLTVVHQDWLNGKEYKCKVSNKGLPAPIEKTISKTKGQPREPQVYTLPPSREEMTKNQVSLTCLVKGFYPSDIAVEWESNGQPENNYKTTPPMLDSDGSFFLYSKLTVDKSRWQQGNVFSCSVMHEALHNHYTQKSLSLSPGK
# light: MKLPVRLLVLMFWIPASSSDVLMTQTPLSLPVSLGDQASISCRSSQTIVHSNGNTYLEWYLQKPGQSPKLLIYKVSNRFSGVPDRFSGSGSGTDFTLKISRVEAEDLGVYYCFQGTHAPYTFGGGTKLEIKTAAAPSVFIFPPSDEQLKSGTASVVCLLNNFYPREAKVQWKVDNALQSGNSQESVTEQDSKDSTYSLSSTLTLSKADYEKHKVYACEVTHQGLSSPVTKSFNRGEC
# modifications: Amino acid sequence of anti-PCP ch-mAb6B5 heavy chain.; Amino acid sequence of anti-PCP ch-mAb6B5 light chain.
# What was measured:
# [1] = test system: PCP receptor; conditions: drug discrimination and PCP receptor binding assays; cited from earlier work
# [2] = rats, s.c. infusion 18 mg/kg/day; cited from earlier work
# [3] = test system: PCP's adverse health effects; assay: dose-dependent effects of mAb6B5 IgG on health and behavior of rats continuously infused with PCP; assay type: in vivo
# Procedure: This series of experiments assessed the dose-dependent effects mAb6B5 IgG on measures of health and behavior (Laurenzana et al., 2003). Rats were implanted with s.c. osmotic minipumps filled to deliver PCP at a rate of 18 mg/kg/day. Baseline PCP-induced locomotor activity was assessed (24 hr after start of PCP infusion), and then saline or various doses of mAb6B5 IgG were administered i.v. The doses of mAb6B5 ranged from 1 mol-eq of serum PCP concentration at steady state (1.53 g/kg of mAb6B5 IgG), down to 0.003 mol-eq (0.005 g/kg).
# On a daily basis, rats were assessed on the amount of food eaten, body weight, general health, and evidence of chromodacryorrhea (“bloody tears” or red lacrimal secretions), an indicator of PCP-induced stress. […] The dose-dependent effects of mAb6B5 IgG on body weight produced some of the most interesting and profound effects (FIG. 8). […] PCP-induced reductions in feeding and drinking behavior obviously contributed to the weight loss in these groups. But their eating behavior normalized by day 4, probably secondary to the development of tolerance to the drug. This allowed these rats to better maintain their health and well-being. […] The PCP-induced weight loss achieved maximum on about day 4 of the experiment. […] 25% of the rats died or had to be sacrificed for humane reasons. […]
# [4] = in humans; cited from earlier work
# [5] = radioimmunoassay (RIA) with [3H]PCP; assay type: binding
# Procedure: A 100 μl aliquot of [^3H]PCP (30,000-40,000 dpm) in RIA buffer (50 mM Tris-HCl adjusted to pH 7.6, 0.15M NaCl, 0.1% BSA and 0.2% NaN3) was added to 50×14 mm sample tubes (Sarsedt, Princeton, N.J.). Then 100 γl of appropriate concentration of test ligand was added to duplicate tubes. […] A 100 μl aliquot of this dilution was then added to all tubes except the tubes for non-specific binding. To nonspecific binding tubes 100 μl of RIA buffer was added. After vortex mixing, the tubes were incubated at 4-8° C. overnight. Next, 1 ml of RIA buffer containing 5% goat anti-mouse IgG (Pel-Freez Biologicals, Rogers, Ark.) and 5% polyethylene glycol 8000 (J. T. Baker Chemical Co.) was added. The tubes were incubated for 15 min at 4-8° C. and centrifuged at the same temperature for 15 min at 2000×g to precipitate the antibody-bound reactivity. The supernatant fluid was aspirated and the pellet was resuspended in the same test tube with 2 ml of scintillation fluid (Liquiscint, National Diagnostics, Manville, N.J.). The tube was placed in a 7 ml scintillation vial and the concentration of [^3H]PCP was determined by liquid scintillation spectrometry.
# The IC50 for both methods very closely approximates the affinity of an antibody.
molecule,measurement,setting,value
"CCNC1(c2ccccc2)CCCCC1 [PCE, N-ethyl-1-phenylcyclohexylamine]",potency relative to PCP (times more potent),[1],~6 times
"c1ccc(C2(N3CCCCC3)CCCCC2)cc1 [PCP, Phencyclidine]",half-life (t1/2),[2],4 h
same,rats that died or had to be sacrificed,"[3]; PCP-saline and PCP-0.003 mol Eq groups, days 4 through 7, 18 mg/kg/day",25%
same,animals that died as a result of PCP administration,[3]; repeated PCP-saline control experiment,1 of 4
same,volume of distribution (Vd),[4],6.2 L/kg
"c1csc(C2(N3CCCCC3)CCCCC2)c1 [TCP, 1-[1-(2-thienyl)cyclohexyl]piperidine]",potency relative to PCP (times more potent),[1],about 1.3 times
B1,IC50,[5],1.6 nM
same,Kd,[5]; chimeric antibody,1.6 nM
